Source: PMC6291738, “Identification of novel HIV-1-derived HLA-E-binding peptides” (Immunology Letters, 2018)
Several values for one entry are separate records, joined by “and”; a condition that tells them apart may be missing. Identical values can stand only once. No end group written: not given here.

Tests used:
[1] = biological target: T1, HLA-E*01:01 (Homo sapiens, UniProt P13747, G128R); assay: HLA-E/peptide cell-surface stabilization (binding) assay, RMA-S cells transfected with HLA-E*01:01; type: cell-based; parameters: RMA-S cells expressing HLA-E*01:01 and E*01:03 were generated by transfecting the genes into the RMA-S cell line; expressed in transfected cells; host or cells: murine TAP-deficient RMA-S cells; conditions: RMA-S cells with HLA-E*01:01 and human β2-microglobulin; overnight 26 °C, peptide 1 h 26 °C, 3 h 37 °C; peptide 100 μg/ml; Index = (Sample 37 °C – No peptide 37 °C)/(Sample 26 °C – No peptide 26 °C); flow cytometry
Method: (§1) Binding of PM9 to both HLA-E*01:01 and –E*01:03 alleles was assessed using an HLA-E/peptide cell-surface stabilization assays. Thus, murine RMA-S cells deficient in transporter associated with antigen processing (TAP) were stably transfected with one of the two HLA-E alleles together with human β2-microglobuline. Then, stabilization of HLA-E/PM9 and HLA-E/VL9 complexes was compared in peptide-titration analyses using peptide concentrations ranging from 0.01 μg/ml to 100 μg/ml by growing transfected RMA-S cells overnight at 26 °C, pulsing them with peptide for 1 h and transferring them to 37 °C for 3 additional hours. Weak half-maximal effective concentrations (EC50) of over 100 μM were indicated for the interaction of PM9 with the two HLA-E*01:01 and E*01:03 molecules (Fig. 1A).

[2] = biological target: T2, HLA-E*01:03 (Homo sapiens, UniProt P13747); assay: HLA-E/peptide cell-surface stabilization (binding) assay, RMA-S cells transfected with HLA-E*01:03; type: cell-based; parameters: RMA-S cells expressing HLA-E*01:01 and E*01:03 were generated by transfecting the genes into the RMA-S cell line; expressed in transfected cells; host or cells: murine TAP-deficient RMA-S cells; conditions: for Cell-Surface Stabilization Index E*01:03 ± SD: RMA-S cells with HLA-E*01:03 and human β2-microglobulin, overnight 26 °C, peptide 1 h 26 °C, 3 h 37 °C, peptide 100 μg/ml, Index = (Sample 37 °C – No peptide 37 °C)/(Sample 26 °C – No peptide 26 °C), mean ± SD n=3
Method: as §1

[3] = biological target: T2, HLA-E*01:03; conditions: summary of both assays
[4] = test system: CD8+ HC092 STCL cells; type: cell-based, human; conditions: PM9-pulsed LCL721.221 HLA-B*18:01 transfectant; volunteer 410
Method: Cryopreserved PBMCs were thawed and cultures set up at 1–3 × 10^6 cells/ml in culture medium containing 1.5 μg/ml 15-mer ‘parental’ peptide and 25 ng/ml IL-7 (R & D Systems). Cultures were supplemented with 100 IU/ml IL-2 (R&D Systems) on day 3, and IL-2 plus fresh culture medium on day 7. On day 10, the cells were washed three times with culture medium, re-suspended in 1 ml of medium and placed at 37 °C, 5% CO2 for 48 h to rest prior to the ICS assay.
LCL 721.221 cell lines expressing a single HLA allele were prepulsed with corresponding peptides, added to the STCLs in a 96-well plate at 37 °C for 2 h. […]
The first-generation candidate T-cell vaccine against HIV-1 employing conserved regions of the HIV-1 proteome was tested in HIV-1-negative adults in trial HIV−CORE 002 and induced robust HIV-1-specific T-cell responses. These responses were detected by pools of 15-mer peptides overlapping by 11 amino acids across the full length of the HIV-1-derived vaccine immunogen. […] In particular, HLA restriction was determined by expanding volunteer’s PBMC with stimulatory ‘parental’ peptide […] […]

[5] = biological target: T1, HLA-E*01:01; assay: Single-chain peptide-β2-microglobulin-MHC-E trimer stabilization assay, HEK 293T cells, HLA-E*01:01; type: cell-based; parameters: expressed in transfected cells; conditions: transiently transfected HEK 293T cells; mAb 3D12
Source text: (§2) The chimeric genes coding for the single-chain peptide-β2-microblobuline-MHC-E trimers were constructed as described previously. Briefly, the DNA fragment coding the tested peptide was inserted downstream of the fragment coding for the signal sequence of HLA-E*01:01 followed by coding sequences for a flexible linker [G4S]4, β2-microglobulin and the desired heavy chain of MHC-E. […] to accommodate for the flexible linker. The assembled plasmids were then transfected into HEK 293 T cells maintained between 10% and 90% confluency at 37 °C, 5% CO2 in DMEM (Life Technologies) supplemented with 10% FBS (SeraLabs), and 50 units/ml Penicillin/50 μg/ml Streptomycin (Life Technologies). Transfections were carried out in 6-well plates using GeneJuice (Millipore) as per the manufacturer’s instructions.
(§3) To further confirm PM9-interaction with the MHC-E molecules, we employed an assay based on cell-surface stabilization of single-chain peptide-β2-microblobuline-MHC-E trimers. Briefly, a DNA fragment coding for the tested peptide, here PM9, was inserted downstream of an HLA-E leader peptide and was followed by flexible [G4S]4 linker, β2-microblobuline and Y84 A point-mutated MHC-E heavy chain, which accommodated the flexible linker (Fig. 1B left). […]

[6] = test system: CD8+ T cells of HIV-1-infected patients; assay: Search for PM9-specific HLA-E-restricted CD8+ T-cell responses in natural HIV-1 infection; type: cell-based, human; conditions: PBMC of 32 treatment-naïve patients chronically infected with HIV-1; barely detectable response
Source text: Cryopreserved PBMCs from 32 treatment-naïve Japanese individuals chronically infected with HIV-1 subtype B were recruited from the National Center for Global Health and Medicine. All volunteers gave written informed consent before participation. The study was approved by the ethics committees of Kumamoto University and the National Center for Global Health and Medicine. Informed consent was obtained from all individuals according to the Declaration of Helsinki. Plasma and PBMCs were separated from whole blood. HLA types of the individuals were determined by standard sequence-based genotyping.
So far, we were unable to confirm existence of vaccine- or natural HIV-1 infection-elicited CD8^+ T lymphocytes recognizing HIV-1-derived peptides through their TCR and this is not for lack of trying. […] Since humans infected with M. tuberculosis have readily detectable CD8^+ T cells specific for HLA-E-presented M. tuberculosis peptides, perhaps search for such HLA-E-restricted HIV-1-specific CD8 T cells in dually HIV-1- and M. tuberculosis co-infected individuals might yield some interesting results.

[7] = biological target: T2, HLA-E*01:03; assay: Single-chain peptide-β2-microglobulin-MHC-E trimer stabilization assay, HEK 293T cells, HLA-E*01:03; type: cell-based; parameters: expressed in transfected cells; conditions: transiently transfected HEK 293T cells; for HLA-E*01:03 single-chain trimer surface stabilization: mAb 3D12, compared with VL9 and irrelevant peptide
Source text: as §2
To further confirm PM9-interaction with the MHC-E molecules, we employed an assay based on cell-surface stabilization of single-chain peptide-β2-microblobuline-MHC-E trimers. Briefly, a DNA fragment coding for the tested peptide, here PM9, was inserted downstream of an HLA-E leader peptide and was followed by flexible [G4S]4 linker, β2-microblobuline and Y84 A point-mutated MHC-E heavy chain, which accommodated the flexible linker (Fig. 1B left). […] From these experiments, we concluded that the PM9 peptide bound to HLA-E molecules, and stabilized and increased the HLA-E expression on the cell surface.
Fig. 2 Identification of HLA-E-binding peptides in a single-chain trimer stabilization assay. A single chain peptide-β2-microglobuline-MHC-E heavy chain trimer stabilization assay was employed to determine the candidate 9-mer peptide binding to HLA-E*01:03 (brown line) and compared to that induced by VL9 (yellow area) and irrelevant (pink area) peptide. Expression of trimer on transiently transfected into HEK 293T cells was assessed using a […] 3D12 mAb in flow cytometry. Please see gating strategy in Fig. S3.

[8] = test system: Mamu-E*02:04; assay: Single-chain peptide-β2-microglobulin-MHC-E trimer stabilization assay, HEK 293T cells, Mamu-E*02:04; type: cell-based, rhesus macaque (Macaca mulatta); conditions: transiently transfected HEK 293T cells; mAb 4D12
Source text: as §2, §3

Sequence | Cell-Surface Stabilization Index E*01:01 [1] | Cell-Surface Stabilization Index E*01:03 ± SD [2] | other results
GHQAAMQMLKDTINE | 0.27 | 0.455 ± 0.033 | 
GHQAAMQMLKETINE [C032, tHIVconsvX 15-mer peptide […]] | 0.16 | 0.480 ± 0.057 | 
INEEAAEWDRLHPVH [C038, tHIVconsvX 15-mer peptide […]] | 0.20 | 0.389 ± 0.039 | 
INEEAAEWDRVHPVH [C037, tHIVconsvX 15-mer peptide […]] | 0.30 | 0.419 ± 0.031 | 
IVRMYSPTSILDIKQ | 0.03 | 0.518 ± 0.033 | 
NEEAAEWDR [NR9] |  |  | HLA-E binder classification across the SCT assay and the LCL721.221-HLA-E*01:03 assay (MFI over 4000) [3]: positive stabilization signal in at least one of the two employed assays
PEIVIYQYM [PM9] |  |  | IFN-γ production by CD8+ HC092 STCL cells [4]: 28.3%; HLA-E*01:01 single-chain trimer surface expression (MFI) relative to non-binding peptide [5]: increased the mean fluorescent intensity (MFI) relative to a non-binding peptide; PM9-specific HLA-E-restricted CD8+ T-cell responders [6]: one possible responder out of 32 patients; HLA-E*01:03 single-chain trimer MFI relative to VL9 MFI ([7]; highest increase of the three MHC-E molecules): approximately half of the VL9 MFI; HLA-E*01:03 single-chain trimer surface stabilization [7]: increased the mean fluorescent intensity (MFI) relative to a non-binding peptide; Mamu-E*02:04 single-chain trimer surface expression (MFI) relative to non-binding peptide [8]: increased the mean fluorescent intensity (MFI) relative to a non-binding peptide; Cell-Surface Stabilization Index E*01:03/PM9 ([2]; PM9 positive control of the experimental day, RMA-S cells with HLA-E*01:03): 0.658 and 0.733 and 0.617 and 0.620; HLA-E binder classification across the SCT assay and the LCL721.221-HLA-E*01:03 assay (MFI over 4000) [3]: both the SCT assay and over 4000 MFI in the LCL721.221-HLA-E*01:03 assay
PQDLNMMLNIVGGHQ [C026, tHIVconsvX 15-mer peptide […]] | 0.25 | 0.429 ± 0.037 | 
PQDLNTMLNTVGGHQ [C025, tHIVconsvX 15-mer peptide […]] | 0.32 | 0.431 ± 0.038 | 
QMAVFIHNF [QF9] |  |  | HLA-E binder classification across the SCT assay and the LCL721.221-HLA-E*01:03 assay (MFI over 4000) [3]: positive stabilization signal in at least one of the two employed assays
QMAVFIHNFKRKGGI [C352, tHIVconsvX 15-mer peptide […]] | 0.26 | 0.641 ± 0.051 | 
QMAVLIHNFKRRGGI [C353, tHIVconsvX 15-mer peptide […]] | 0.17 | 0.632 ± 0.065 | 
SALSEGATPQDLNMM [C022, tHIVconsvX 15-mer peptide […]] | 0.14 | 0.382 ± 0.027 | 
TEEKIKALTEICKEM [C182, tHIVconsvX 15-mer peptide […]] | 0.33 | 0.463 ± 0.085 | 
TVCVIWCIH [TH9, reference compound] |  |  | HLA-E*01:01 single-chain trimer surface expression (MFI) relative to non-binding peptide [5]: non-binding; HLA-E*01:03 single-chain trimer surface stabilization [7]: non-binding; Mamu-E*02:04 single-chain trimer surface expression (MFI) relative to non-binding peptide [8]: non-binding
VMAPRTLVL [VL9, reference compound] |  |  | Cell-Surface Stabilization Index E*01:03/VL9 ([2]; VL9 (VMAPRTLVL) positive control of the experimental day, RMA-S cells with HLA-E*01:03): 2.572 and 2.369 and 2.600 and 2.281
VYYRDSRDPIWKGPA [C376, tHIVconsvX 15-mer peptide […]] | 0.22 | 0.366 ± 0.044 | 
VYYRDSRDPLWKGPA [C377, tHIVconsvX 15-mer peptide […]] | 0.17 | 0.353 ± 0.039 | 
YFSVPLDESFRKYTA [C226, tHIVconsvX 15-mer peptide […]] | −0.15 | 0.669 ± 0.010 | 
YFSVPLDKDFRKYTA [C227, tHIVconsvX 15-mer peptide […]] | 0.21 | 0.618 ± 0.042 | 
